Data: the kinase profiling compilation of Christmann-Franck et al. (2016)

Assays:
Assay in all cases: radiometric filter-binding kinase assay, Kinaseprofiler
STK17A (human) = STK17A (human) (UniProt Q9UEE5); conditions: compound 1.0 µM; ATP 10 µM
[1] = tested on: FLT4 (human), P35916 [V1128L/H1146R]; conditions: compound 1.0 µM; ATP 200 µM
FGR (human) = FGR (human) (UniProt P09769); conditions: compound 10.0 µM; ATP 45 µM
RPS6KA5 KD1 KD2 (human) = RPS6KA5 KD1 KD2 (human) (UniProt O75582); conditions: compound 10.0 µM; ATP 90 µM
LYN (human) = LYN (human) (UniProt P07948); conditions: compound 10.0 µM; ATP 70 µM
NTRK2 (human) = NTRK2 (human) (UniProt Q16620); conditions: ATP 90 µM
CAMK2G (human) = CAMK2G (human) (UniProt Q13555); conditions: compound 10.0 µM; ATP 10 µM
MAP2K7 (human) = MAP2K7 (human) (UniProt O14733); conditions: compound 10.0 µM; ATP 10 µM
SIK1 (human) = SIK1 (human) (UniProt P57059); conditions: ATP 45 µM
CDK2 CCNA2 (human) = CDK2 CCNA2 (human) (UniProt P24941+P20248); conditions: ATP 45 µM
Chain of CDK2 CCNA2 (human) (P20248 whole entry, looked up, other chains not shown): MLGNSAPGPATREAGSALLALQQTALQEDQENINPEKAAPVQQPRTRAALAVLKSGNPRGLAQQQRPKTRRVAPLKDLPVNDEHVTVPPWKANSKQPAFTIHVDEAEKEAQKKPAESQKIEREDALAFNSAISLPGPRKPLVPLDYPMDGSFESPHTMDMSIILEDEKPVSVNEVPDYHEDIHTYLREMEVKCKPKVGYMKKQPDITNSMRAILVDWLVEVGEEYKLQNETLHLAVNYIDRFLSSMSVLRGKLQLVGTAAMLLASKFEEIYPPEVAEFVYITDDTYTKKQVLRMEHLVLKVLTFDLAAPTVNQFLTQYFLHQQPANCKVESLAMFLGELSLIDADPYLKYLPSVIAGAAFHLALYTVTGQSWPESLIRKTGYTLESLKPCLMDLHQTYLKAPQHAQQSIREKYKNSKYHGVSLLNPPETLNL

MAP3K5 (human) = MAP3K5 (human) (UniProt Q99683); conditions: ATP 200 µM
Chain of MAP3K5 (human) (Q99683 whole entry, looked up): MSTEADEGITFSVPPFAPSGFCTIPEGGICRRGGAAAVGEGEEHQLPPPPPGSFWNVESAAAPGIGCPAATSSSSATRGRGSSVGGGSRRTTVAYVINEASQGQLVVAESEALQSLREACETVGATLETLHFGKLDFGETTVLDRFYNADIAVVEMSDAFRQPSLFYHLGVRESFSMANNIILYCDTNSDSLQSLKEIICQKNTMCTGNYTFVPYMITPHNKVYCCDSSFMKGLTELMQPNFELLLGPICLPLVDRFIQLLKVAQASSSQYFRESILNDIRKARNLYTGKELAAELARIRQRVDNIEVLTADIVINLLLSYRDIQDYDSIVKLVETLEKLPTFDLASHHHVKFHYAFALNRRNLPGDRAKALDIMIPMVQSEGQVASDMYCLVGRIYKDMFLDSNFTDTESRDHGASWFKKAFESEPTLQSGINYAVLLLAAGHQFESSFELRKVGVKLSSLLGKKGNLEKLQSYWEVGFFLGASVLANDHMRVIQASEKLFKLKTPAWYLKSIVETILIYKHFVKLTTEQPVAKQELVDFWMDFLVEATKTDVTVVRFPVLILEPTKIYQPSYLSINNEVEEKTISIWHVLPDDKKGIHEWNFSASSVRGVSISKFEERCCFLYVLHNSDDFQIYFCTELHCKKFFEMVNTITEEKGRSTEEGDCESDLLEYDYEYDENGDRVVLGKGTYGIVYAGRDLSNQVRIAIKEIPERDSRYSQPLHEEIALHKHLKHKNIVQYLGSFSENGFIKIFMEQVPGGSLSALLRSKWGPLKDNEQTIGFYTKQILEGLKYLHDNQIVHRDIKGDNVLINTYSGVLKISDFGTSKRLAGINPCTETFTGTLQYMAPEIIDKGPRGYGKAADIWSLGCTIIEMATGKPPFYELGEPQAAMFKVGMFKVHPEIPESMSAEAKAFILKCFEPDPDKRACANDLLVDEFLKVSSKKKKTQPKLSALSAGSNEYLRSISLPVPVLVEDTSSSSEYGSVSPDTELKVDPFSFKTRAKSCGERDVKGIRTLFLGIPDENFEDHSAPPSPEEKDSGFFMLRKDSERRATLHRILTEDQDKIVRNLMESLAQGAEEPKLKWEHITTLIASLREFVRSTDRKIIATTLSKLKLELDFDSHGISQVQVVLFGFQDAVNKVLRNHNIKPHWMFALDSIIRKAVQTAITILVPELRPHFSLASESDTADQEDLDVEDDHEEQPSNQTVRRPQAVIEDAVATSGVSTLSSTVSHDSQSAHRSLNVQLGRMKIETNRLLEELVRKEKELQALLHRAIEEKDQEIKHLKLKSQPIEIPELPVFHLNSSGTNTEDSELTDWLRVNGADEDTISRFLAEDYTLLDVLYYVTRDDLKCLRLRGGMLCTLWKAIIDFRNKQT

FLT3 (human) = FLT3 (human) (UniProt P36888); conditions: compound 1.0 µM; ATP 200 µM
MAPK8 (human) = MAPK8 (human) (UniProt P45983); conditions: ATP 45 µM
ULK2 (human) = ULK2 (human) (UniProt Q8IYT8); conditions: compound 10.0 µM; ATP 15 µM
BRSK1 (human) = BRSK1 (human) (UniProt Q8TDC3); conditions: ATP 200 µM
CDK3 CCNE1 (human) = CDK3 CCNE1 (human) (UniProt Q00526+P24864); conditions: ATP 200 µM
Chain of CDK3 CCNE1 (human) (P24864 whole entry, looked up): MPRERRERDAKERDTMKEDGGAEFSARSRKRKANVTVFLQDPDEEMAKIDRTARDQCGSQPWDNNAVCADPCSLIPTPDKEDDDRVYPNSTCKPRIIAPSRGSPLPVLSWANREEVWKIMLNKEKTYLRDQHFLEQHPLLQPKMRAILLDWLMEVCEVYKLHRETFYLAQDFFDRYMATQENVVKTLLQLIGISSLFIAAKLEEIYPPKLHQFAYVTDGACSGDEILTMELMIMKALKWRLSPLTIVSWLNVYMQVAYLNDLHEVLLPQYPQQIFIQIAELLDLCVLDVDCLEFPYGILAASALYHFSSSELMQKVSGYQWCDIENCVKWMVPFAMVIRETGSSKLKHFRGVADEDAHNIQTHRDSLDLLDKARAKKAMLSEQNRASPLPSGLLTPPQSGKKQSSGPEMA
Chain of CDK3 CCNE1 (human) (Q00526 whole entry, looked up): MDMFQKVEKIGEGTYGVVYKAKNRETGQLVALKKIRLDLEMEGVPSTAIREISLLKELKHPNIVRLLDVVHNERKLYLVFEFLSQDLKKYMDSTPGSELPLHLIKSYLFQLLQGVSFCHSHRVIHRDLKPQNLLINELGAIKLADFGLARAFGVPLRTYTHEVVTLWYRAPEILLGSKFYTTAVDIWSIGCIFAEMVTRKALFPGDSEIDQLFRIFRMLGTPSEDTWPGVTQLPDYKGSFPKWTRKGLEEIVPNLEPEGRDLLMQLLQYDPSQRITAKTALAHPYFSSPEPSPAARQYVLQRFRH

IRAK1 (human) = IRAK1 (human) (UniProt P51617); conditions: compound 10.0 µM; ATP 45 µM
[2] = target: PRKAA2 PRKAB1 PRKAG1 (human) (UniProt P54619+P54646+Q9Y478); conditions: ATP 45 µM
RPS6KA6 KD1 KD2 (human) = RPS6KA6 KD1 KD2 (human) (UniProt Q9UK32); conditions: compound 1.0 µM; ATP 45 µM
FLT1 (human) = FLT1 (human) (UniProt P17948); conditions: ATP 200 µM
Chain of FLT1 (human) (P17948 whole entry, looked up): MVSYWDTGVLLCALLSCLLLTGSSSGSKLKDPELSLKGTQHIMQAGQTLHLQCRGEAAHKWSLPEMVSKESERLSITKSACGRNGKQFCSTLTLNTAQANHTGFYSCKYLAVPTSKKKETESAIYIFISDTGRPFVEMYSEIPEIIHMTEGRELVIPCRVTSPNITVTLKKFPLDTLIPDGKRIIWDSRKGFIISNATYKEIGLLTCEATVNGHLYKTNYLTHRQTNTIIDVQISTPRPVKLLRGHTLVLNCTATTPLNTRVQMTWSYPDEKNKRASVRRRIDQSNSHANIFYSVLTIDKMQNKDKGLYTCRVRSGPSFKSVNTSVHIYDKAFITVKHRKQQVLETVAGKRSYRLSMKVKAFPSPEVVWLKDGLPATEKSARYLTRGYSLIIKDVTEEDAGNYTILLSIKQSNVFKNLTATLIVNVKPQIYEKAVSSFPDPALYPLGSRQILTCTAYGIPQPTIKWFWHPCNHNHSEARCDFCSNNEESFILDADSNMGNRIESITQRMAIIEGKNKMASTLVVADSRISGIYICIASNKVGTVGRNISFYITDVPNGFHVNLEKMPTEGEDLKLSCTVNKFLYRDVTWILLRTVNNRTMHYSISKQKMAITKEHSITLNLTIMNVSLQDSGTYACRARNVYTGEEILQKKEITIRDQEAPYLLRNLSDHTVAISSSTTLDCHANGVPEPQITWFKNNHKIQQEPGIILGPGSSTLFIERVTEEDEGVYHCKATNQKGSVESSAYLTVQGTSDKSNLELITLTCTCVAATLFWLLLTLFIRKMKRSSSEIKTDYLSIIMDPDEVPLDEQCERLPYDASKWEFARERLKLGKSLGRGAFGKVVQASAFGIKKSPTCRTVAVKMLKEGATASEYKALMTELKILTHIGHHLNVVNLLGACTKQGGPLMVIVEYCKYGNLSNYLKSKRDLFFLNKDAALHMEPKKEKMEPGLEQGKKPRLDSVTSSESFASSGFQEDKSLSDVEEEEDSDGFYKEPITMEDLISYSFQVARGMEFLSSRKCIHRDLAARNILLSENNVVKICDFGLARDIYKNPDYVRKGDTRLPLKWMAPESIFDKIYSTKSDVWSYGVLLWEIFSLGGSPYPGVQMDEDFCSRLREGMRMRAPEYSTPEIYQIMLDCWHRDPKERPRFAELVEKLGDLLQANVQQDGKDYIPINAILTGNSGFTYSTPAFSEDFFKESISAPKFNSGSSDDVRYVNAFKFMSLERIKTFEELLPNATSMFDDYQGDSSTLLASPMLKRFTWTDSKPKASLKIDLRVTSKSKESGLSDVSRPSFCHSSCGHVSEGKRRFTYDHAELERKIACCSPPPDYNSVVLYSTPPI

DAPK2 (human) = DAPK2 (human) (UniProt Q9UIK4); conditions: compound 10.0 µM; ATP 10 µM
CHEK1 (human) = CHEK1 (human) (UniProt O14757); conditions: compound 10.0 µM; ATP 90 µM
PRKX (human) = PRKX (human) (UniProt P51817); conditions: compound 10.0 µM; ATP 200 µM
RPS6KA4 KD1 KD2 (human) = RPS6KA4 KD1 KD2 (human) (UniProt O75676); conditions: ATP 45 µM
[3] = target: PRKAA1 PRKAB1 PRKAG1 (human) (UniProt P54619+Q13131+Q9Y478); conditions: ATP 45 µM
MAP3K7 (human) = MAP3K7 (human) (UniProt O43318); conditions: ATP 45 µM
TSSK2 (human) = TSSK2 (human) (UniProt Q96PF2); conditions: compound 10.0 µM; ATP 15 µM
KDR (human) = KDR (human) (UniProt P35968); conditions: compound 10.0 µM; ATP 90 µM
[4] = tested on: PRKD1 (human), Q15139 [R135A]; conditions: compound 10.0 µM; ATP 45 µM
TNK2 (human) = TNK2 (human) (UniProt Q07912); conditions: ATP 70 µM
Chain of TNK2 (human) (Q07912 whole entry, looked up): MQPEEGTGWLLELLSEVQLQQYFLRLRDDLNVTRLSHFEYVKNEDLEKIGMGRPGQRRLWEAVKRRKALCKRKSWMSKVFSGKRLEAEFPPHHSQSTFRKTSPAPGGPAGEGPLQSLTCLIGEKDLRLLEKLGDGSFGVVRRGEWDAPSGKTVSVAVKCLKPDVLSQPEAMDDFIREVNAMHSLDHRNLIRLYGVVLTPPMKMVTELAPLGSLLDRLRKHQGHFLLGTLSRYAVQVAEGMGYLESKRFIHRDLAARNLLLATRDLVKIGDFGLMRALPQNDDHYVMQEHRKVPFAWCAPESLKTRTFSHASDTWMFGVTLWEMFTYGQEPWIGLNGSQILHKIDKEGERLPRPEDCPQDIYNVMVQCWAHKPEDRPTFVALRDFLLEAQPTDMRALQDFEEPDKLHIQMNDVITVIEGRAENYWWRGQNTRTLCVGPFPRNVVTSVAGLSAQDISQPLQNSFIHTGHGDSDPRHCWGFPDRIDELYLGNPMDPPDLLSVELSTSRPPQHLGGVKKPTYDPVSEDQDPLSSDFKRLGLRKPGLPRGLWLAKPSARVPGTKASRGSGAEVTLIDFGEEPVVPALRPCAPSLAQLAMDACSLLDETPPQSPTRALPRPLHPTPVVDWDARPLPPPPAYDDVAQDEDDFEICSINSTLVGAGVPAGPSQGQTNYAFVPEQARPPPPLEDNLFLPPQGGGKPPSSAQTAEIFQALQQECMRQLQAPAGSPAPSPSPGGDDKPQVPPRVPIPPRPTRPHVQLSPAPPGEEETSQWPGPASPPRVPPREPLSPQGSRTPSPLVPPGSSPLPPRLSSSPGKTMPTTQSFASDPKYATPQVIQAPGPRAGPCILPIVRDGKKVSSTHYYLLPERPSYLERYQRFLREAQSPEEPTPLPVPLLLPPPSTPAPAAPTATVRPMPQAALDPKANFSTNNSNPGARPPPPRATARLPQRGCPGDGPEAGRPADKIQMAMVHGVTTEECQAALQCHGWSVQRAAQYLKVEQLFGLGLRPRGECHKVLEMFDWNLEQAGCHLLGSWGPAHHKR

CAMK2D (human) = CAMK2D (human) (UniProt Q13557); conditions: compound 1.0 µM; ATP 10 µM
CAMK2B (human) = CAMK2B (human) (UniProt Q13554); conditions: ATP 15 µM
PAK6 (human) = PAK6 (human) (UniProt Q9NQU5); conditions: ATP 10 µM
PTK2B (human) = PTK2B (human) (UniProt Q14289); conditions: compound 10.0 µM; ATP 90 µM

COC(=O)[C@]1(O)C[C@@H]2O[C@@]1(C)n1c3ccccc3c3c4c(c5c6ccccc6n2c5c31)C(=O)NC4
residual activity (STK17A (human)): 0% | residual activity [1]: 0% | residual activity (FGR (human)): -1% | residual activity (RPS6KA5 KD1 KD2 (human)): 0% | residual activity (LYN (human)): 0% | residual activity (NTRK2 (human); compound 1.0 µM): 0% | residual activity (NTRK2 (human); compound 10.0 µM): 0% | residual activity (CAMK2G (human)): 0% | residual activity (MAP2K7 (human)): 0% | residual activity (SIK1 (human); compound 1.0 µM): 0% | residual activity (SIK1 (human); compound 10.0 µM): 0% | residual activity (CDK2 CCNA2 (human); compound 1.0 µM): 1% | residual activity (CDK2 CCNA2 (human); compound 10.0 µM): 0% | residual activity (MAP3K5 (human); compound 1.0 µM): 0% | residual activity (MAP3K5 (human); compound 10.0 µM): 0% | residual activity (FLT3 (human)): 0% | residual activity (MAPK8 (human); compound 1.0 µM): -12% | residual activity (MAPK8 (human); compound 10.0 µM): -20% | residual activity (ULK2 (human)): 0% | residual activity (BRSK1 (human); compound 1.0 µM): -1% | residual activity (BRSK1 (human); compound 10.0 µM): 0% | residual activity (CDK3 CCNE1 (human); compound 1.0 µM): 27% | residual activity (CDK3 CCNE1 (human); compound 10.0 µM): 2% | residual activity (IRAK1 (human)): 0% | residual activity ([2]; compound 1.0 µM): -5% | residual activity ([2]; compound 10.0 µM): 1% | residual activity (RPS6KA6 KD1 KD2 (human)): -2% | residual activity (FLT1 (human); compound 1.0 µM): 0% | residual activity (FLT1 (human); compound 10.0 µM): 0% | residual activity (DAPK2 (human)): -3% | residual activity (CHEK1 (human)): -1% | residual activity (PRKX (human)): 0% | residual activity (RPS6KA4 KD1 KD2 (human); compound 1.0 µM): -1% | residual activity (RPS6KA4 KD1 KD2 (human); compound 10.0 µM): 0% | residual activity ([3]; compound 1.0 µM): -1% | residual activity ([3]; compound 10.0 µM): 0% | residual activity (MAP3K7 (human); compound 1.0 µM): -1% | residual activity (MAP3K7 (human); compound 10.0 µM): -5% | residual activity (TSSK2 (human)): 0% | residual activity (KDR (human)): 0% | residual activity [4]: 0% | residual activity (TNK2 (human); compound 1.0 µM): 0% | residual activity (TNK2 (human); compound 10.0 µM): 0% | residual activity (CAMK2D (human)): 0% | residual activity (CAMK2B (human); compound 1.0 µM): 0% | residual activity (CAMK2B (human); compound 10.0 µM): -1% | residual activity (PAK6 (human); compound 1.0 µM): 0% | residual activity (PAK6 (human); compound 10.0 µM): -1% | residual activity (PTK2B (human)): -1%
